# Measurements reported in the supplement of paper PMC10307832.
# Columns and labels:
# Experiment in all cases: relative viability (nuclei count vs DMSO), 5 days (fraction); higher = more cells survive
# [1] = compound: CCC1=CN=CN=C1N2CCN(CC2)CC3=NC4=C(N3)C=C(C=C4)C(F)(F)F + CC(=O)Nc1cccc(-n2c(=O)n(C3CC3)c(=O)c3c(Nc4ccc(I)cc4F)n(C)c(=O)c(C)c32)c1 [Trametinib] (partner 0.02 µM)
# In short: (§1)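 Five library-drug doses in √10 steps were combined with a fixed anchor-drug dose, or a single drug was given alone, by pin tool to lung cancer cell lines in 1536-well plates the day after seeding. Nuclei were stained and counted after 5 days. Relative viability is the nuclei count in treated wells over that in vehicle wells, taken as the median of duplicate plates.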
# [2] = compound: CCn1c(-c2nonc2N)nc2cnc(Oc3cccc(NC(=O)c4ccc(OCCN5CCOCC5)cc4)c3)cc21 + CC(=O)Nc1cccc(-n2c(=O)n(C3CC3)c(=O)c3c(Nc4ccc(I)cc4F)n(C)c(=O)c(C)c32)c1 [Trametinib] (partner 0.02 µM)
# In short: as §1
# [3] = compound: N=C1NC(=O)/C(=C/c2ccc(O)cc2)S1 [Mirin] + NC(=O)Nc1cc(-c2cccc(F)c2)sc1C(=O)N[C@H]1CCCNC1 [AZD7762] (partner 0.2 µM)
# In short: as §1
# [4] = compound: N=C1NC(=O)/C(=C/c2ccc(O)cc2)S1 [Mirin] + O=C(c1cc(Cc2n[nH]c(=O)c3ccccc23)ccc1F)N1CCN(C(=O)C2CC2)CC1 [Olaparib] (partner 8 µM)
# In short: as §1
Cell Line,relative viability ([1]; first compound 0.04 µM),relative viability ([1]; first compound 0.1265 µM),relative viability ([1]; first compound 0.4 µM),relative viability ([1]; first compound 1.265 µM),relative viability ([1]; first compound 4 µM),relative viability ([2]; first compound 0.04 µM),relative viability ([2]; first compound 0.1265 µM),relative viability ([2]; first compound 0.4 µM),relative viability ([2]; first compound 1.265 µM),relative viability ([2]; first compound 4 µM),relative viability ([3]; first compound 0.25 µM),relative viability ([3]; first compound 0.7906 µM),relative viability ([3]; first compound 2.5 µM),relative viability ([3]; first compound 7.906 µM),relative viability ([3]; first compound 25 µM),relative viability ([4]; first compound 0.25 µM),relative viability ([4]; first compound 0.7906 µM),relative viability ([4]; first compound 2.5 µM),relative viability ([4]; first compound 7.906 µM),relative viability ([4]; first compound 25 µM)
201T,0.725,0.73,0.747,0.711,0.694,0.719,0.706,0.749,0.697,0.698,0.581,0.754,0.673,0.441,0.552,0.877,0.888,0.886,0.902,1.03
A549,–,–,–,–,–,–,–,–,–,–,–,–,–,–,–,0.342,0.229,0.333,0.243,0.367
A-427,0.631,0.731,0.675,0.615,0.637,0.879,0.839,0.727,0.381,0.373,0.772,0.879,0.701,0.737,0.636,0.769,0.682,0.631,0.766,0.766
ABC-1,–,–,–,–,–,–,–,–,–,–,0.603,0.929,0.628,0.847,0.683,0.887,0.618,0.78,0.593,0.41
BEN,1.09,1.18,0.975,0.742,0.709,0.955,0.972,0.702,0.518,0.521,0.711,0.711,0.735,0.574,0.494,0.958,0.987,1.21,0.962,0.638
CAL-12T,0.256,0.352,0.356,0.267,0.37,0.354,0.363,0.372,0.346,0.345,0.681,0.858,0.633,0.717,0.831,0.733,0.821,0.668,0.658,0.531
COR-L23,0.569,0.682,0.524,0.47,0.583,0.647,0.517,0.248,0.192,0.16,–,–,–,–,–,0.395,0.319,0.313,0.365,0.319
COR-L 105,0.42,0.418,0.501,0.416,0.44,0.343,0.42,0.365,0.319,0.376,–,–,–,–,–,0.738,0.843,0.696,0.683,0.683
Calu-6,–,–,–,–,–,–,–,–,–,–,–,–,–,–,–,0.554,0.673,0.618,0.397,0.482
ChaGo-K-1,0.93,0.894,0.821,0.869,0.859,1.06,0.928,0.844,0.89,0.866,0.832,0.825,0.868,0.835,0.755,0.415,0.363,0.43,0.381,0.253
EBC-1,–,–,–,–,–,–,–,–,–,–,–,–,–,–,–,0.707,0.783,0.693,0.561,0.471
EKVX,0.415,0.384,0.379,0.32,0.309,0.411,0.389,0.404,0.371,0.415,0.631,0.709,0.771,0.727,0.689,0.857,0.916,0.839,0.758,0.993
EMC-BAC-2,–,0.857,0.841,0.891,0.951,0.905,0.922,0.826,0.401,0.445,0.977,1.1,1.26,0.92,1.05,0.505,0.508,0.48,0.382,0.429
EPLC-272H,0.289,0.26,0.32,0.284,0.325,0.365,0.347,0.256,0.213,0.197,0.239,–,0.23,0.227,0.161,0.867,0.682,0.812,0.661,0.228
H3255,0.639,0.583,0.572,0.522,0.599,0.671,0.676,0.577,0.442,0.579,0.899,0.958,0.943,0.738,0.867,0.55,0.539,0.541,0.537,0.547
HARA,0.879,0.76,0.454,0.472,0.716,0.494,0.874,0.687,0.333,0.254,0.257,–,0.47,0.423,0.353,1.08,–,0.735,0.874,0.495
HCC-15,0.36,0.392,0.372,0.368,0.369,0.38,0.36,0.348,0.39,0.378,0.589,0.973,1.33,1.28,1.18,0.718,0.675,0.73,0.536,0.502

Cell Line,relative viability ([1]; first compound 0.04 µM),relative viability ([1]; first compound 0.1265 µM),relative viability ([1]; first compound 0.4 µM),relative viability ([1]; first compound 1.265 µM),relative viability ([1]; first compound 4 µM),relative viability ([2]; first compound 0.04 µM),relative viability ([2]; first compound 0.1265 µM),relative viability ([2]; first compound 0.4 µM),relative viability ([2]; first compound 1.265 µM),relative viability ([2]; first compound 4 µM),relative viability ([3]; first compound 0.25 µM),relative viability ([3]; first compound 0.7906 µM),relative viability ([3]; first compound 2.5 µM),relative viability ([3]; first compound 7.906 µM),relative viability ([3]; first compound 25 µM),relative viability ([4]; first compound 0.25 µM),relative viability ([4]; first compound 0.7906 µM),relative viability ([4]; first compound 2.5 µM),relative viability ([4]; first compound 7.906 µM),relative viability ([4]; first compound 25 µM)
HCC-44,1.06,0.994,1.02,0.963,0.915,1.06,1.12,1.04,1.05,1.03,1.05,1.22,1.04,1.03,1.11,0.99,1.11,0.97,0.964,1.1
HCC-78,0.843,0.712,0.628,0.577,0.562,0.796,0.469,–,0.847,1.06,0.583,0.863,0.671,0.658,0.68,0.786,0.628,0.718,0.852,0.732
HCC-366,0.344,0.372,0.349,0.285,0.269,0.335,0.334,0.322,0.0755,0.0555,0.313,0.541,0.28,0.262,0.364,0.377,0.376,0.346,0.426,0.335
HCC-827,0.483,0.51,0.544,0.497,0.553,0.586,0.662,0.683,0.573,0.689,0.209,0.184,0.242,0.157,0.225,0.627,0.704,0.647,0.626,0.623
HOP-62,0.424,0.378,0.373,0.346,0.355,0.381,0.361,0.371,0.301,0.314,0.729,1.08,0.478,0.549,0.383,0.548,0.409,0.219,0.381,0.519
IA-LM,–,–,–,–,–,–,–,–,–,–,–,–,–,–,–,0.786,0.947,0.765,–,0.902
NCI-H520,0.784,0.583,0.582,0.582,0.593,0.734,0.738,0.469,0.406,0.311,–,–,–,–,–,0.311,0.336,0.307,0.349,0.187
NCI-H661,0.638,0.591,0.508,0.471,0.49,0.469,0.498,0.355,0.451,0.346,–,–,–,–,–,0.713,0.759,0.712,0.707,0.655
NCI-H1299,–,–,–,–,–,–,–,–,–,–,–,–,–,–,–,1.03,1.01,0.958,0.867,1.03
NCI-H1650,0.499,0.707,0.573,0.499,0.672,0.668,0.543,0.52,0.37,0.496,–,–,–,–,–,0.789,0.929,0.817,0.755,0.732
NCI-H1703,–,–,–,–,–,–,–,–,–,–,0.115,0.148,0.146,–,0.117,0.414,0.384,0.412,–,0.635
NCI-H2009,0.346,0.299,0.281,0.182,0.246,0.199,0.192,0.161,0.16,0.142,–,–,–,–,–,0.727,0.737,0.684,0.524,0.675
NCI-H2023,0.533,0.53,0.527,0.513,0.453,0.708,0.652,0.474,0.317,0.237,–,–,–,–,–,0.496,0.506,0.454,0.459,0.416
NCI-H2228,–,0.471,0.397,0.221,0.586,0.558,0.495,0.345,0.349,0.362,–,–,–,–,–,0.552,0.676,0.819,0.666,0.723
SK-LU-1,0.635,0.483,0.465,0.35,0.476,0.481,0.386,0.378,0.254,0.311,–,–,–,–,–,0.5,0.532,0.449,0.357,0.425
SK-MES-1,0.569,0.503,0.582,0.516,0.563,0.534,0.519,0.402,0.391,0.328,–,–,–,–,–,0.721,0.877,0.682,0.583,0.455
SW 1573,0.652,0.58,0.513,0.47,0.497,0.716,0.577,0.478,0.229,0.19,–,–,–,–,–,0.481,0.408,0.46,0.37,0.271
